Measurements taken from patent publication US11976083B2, “Inhibitors of peptidylarginine deiminases” (Gilead Sciences, Inc., priority 2020, dated 2024).

Target: T1, human PAD4 (Homo sapiens, UniProt Q9UM07)
T1 construct: human PAD4 (NM_012387), A2-P663, was PCR amplified; His-SUMO (N, cleaved yes); made in house; host or cells: E. coli BL21(DE3)
Test: In vitro PAD4 BAEE biochemical assay
Conditions: BAEE substrate 3 mM, 5 nM PAD4, 2 mM calcium chloride; geometric mean of multiple experiments
Method in brief: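 Fluorescence read-out (ex 405/em 535 nm) of isoindole formed from ammonia, o-phthalaldehyde and DTT after EDTA stop. Reaction: 5 nM PAD4, 2 mM CaCl2, 3 mM BAEE, 2 h, 25 °C, after 30 min enzyme–compound preincubation. Normalised to BB-Cl-Amidine (50 µM) and DMSO controls.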

T1 sequence (Q9UM07 2-663): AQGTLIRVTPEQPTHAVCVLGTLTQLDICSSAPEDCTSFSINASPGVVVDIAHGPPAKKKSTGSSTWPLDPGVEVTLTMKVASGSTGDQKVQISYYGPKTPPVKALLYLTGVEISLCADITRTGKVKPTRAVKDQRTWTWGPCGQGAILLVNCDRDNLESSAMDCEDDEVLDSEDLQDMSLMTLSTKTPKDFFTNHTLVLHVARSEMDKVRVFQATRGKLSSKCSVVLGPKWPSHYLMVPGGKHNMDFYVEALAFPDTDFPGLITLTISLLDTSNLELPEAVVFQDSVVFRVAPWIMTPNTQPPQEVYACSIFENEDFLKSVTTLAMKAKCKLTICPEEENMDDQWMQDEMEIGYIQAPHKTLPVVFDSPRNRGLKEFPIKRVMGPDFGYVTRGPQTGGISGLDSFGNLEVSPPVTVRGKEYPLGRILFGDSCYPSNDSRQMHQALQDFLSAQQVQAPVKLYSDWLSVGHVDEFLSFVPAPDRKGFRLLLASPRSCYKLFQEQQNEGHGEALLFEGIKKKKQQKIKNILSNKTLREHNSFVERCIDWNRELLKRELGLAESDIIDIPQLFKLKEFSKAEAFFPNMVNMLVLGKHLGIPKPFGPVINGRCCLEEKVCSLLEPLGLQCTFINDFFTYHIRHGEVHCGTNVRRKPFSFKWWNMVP

SMILES | IC50 [nM]
C[C@H]1NC(=O)c2cnc(Cl)cc2CCCCCn2c(-c3nc4cc(C(=O)N[C@H]5CNCC[C@@H]5F)c(F)cc4n3C3CC3)cc3ccc1nc32 [Example 357, 2-[(2~{R})-8-chloro-2-methyl-4-oxo-3,7,16,22-tetrazatetracyclo[14.5.2.0^{5,10}.0^{19,23}]tricosa-1(22),5,7,9,17,19(23),20-heptaen-17-yl]-1-cyclopropyl-6-fluoro-~ {N}-[(3~{S},4~{S})-4-fluoro-3-piperidyl]benzimidazole-5-carboxamide] | 31
COc1cc(C(=O)N2CC[C@@H](OC)[C@@H](N)C2)cc2nc(-c3cc4ccc5nc4n3CCCCCc3cnccc3C(=O)N[C@@H]5C)n(C)c12 [Example 358, (2~{R})-17-[5-[(3~{S},4~{R})-3-amino-4-methoxy-piperidine-1-carbonyl]-7-methoxy-1-methyl-benzimidazol-2-yl]-2-methyl-3,8,16,22-tetrazatetracyclo[14.5.2.0^{5,10}.0^{19,23}] tricosa-1(22),5,7,9,17,19(23),20-heptaen-4-one] | 83
COc1cc(C(=O)N2CC[C@@H](OC)[C@@H](N)C2)cc2nc(-c3cc4ccc5nc4n3CCCCCc3cnc(Cl)cc3C(=O)N[C@@H]5C)n(C)c12 [Example 359, (2~{R})-17-[5-[(3~{S},4~{R})-3-amino-4-methoxy-piperidine-1-carbonyl]-7-methoxy-1-methyl-benzimidazol-2-yl]-7-chloro-2-methyl-3,8,16,22-tetrazatetracyclo[14.5.2.0^{5,10}.0^{19,23}] tricosa-1(22),5,7,9,17,19(23),20-heptaen-4-one] | 104
COc1cc(C(=O)N2CC[C@@H](OC)[C@@H](N)C2)cc2nc(-c3cc4ccc5nc4n3CCCCCc3cccc(F)c3C(=O)N[C@@H]5C)n(C)c12 [Example 360, (2~{R})-17-[5-[(3~{S},4~{R})-3-amino-4-methoxy-piperidine-1-carbonyl]-7-methoxy-1-methyl-benzimidazol-2-yl]-6-fluoro-2-methyl-3,16,22-triazatetracyclo[14.5.2.0^{5,10}.0^{19,23}] tricosa-1(22),5,7,9,17,19(23),20-heptaen-4-one] | 58
COc1cc(C(=O)N2CCC[C@@H](N)C2)cc2nc(-c3cc4ccc5nc4n3CCCCCc3cccc(C)c3C(=O)N[C@@H]5C)n(C)c12 [Example 361, (2~{R})-17-[5-[(3~{R})-3-aminopiperidine-1-carbonyl]-7-methoxy-1-methyl-benzimidazol-2-yl]-2,6-dimethyl-3,16,22-triazatetracyclo[14.5.2.0^{5,10}.0^{19,23}] tricosa-1(22),5(10),6,8,17,19(23),20-heptaen-4-one] | 74
COc1cc(C(=O)N2CC[C@@H](OC)[C@@H](N)C2)cc2nc(-c3cc4ccc5nc4n3CCCCCc3cccc(C)c3C(=O)N[C@@H]5C)n(C)c12 [Example 362, (2~{R})-17-[5-[(3~{S},4~{R})-3-amino-4-methoxy-piperidine-1-carbonyl]-7-methoxy-1-methyl-benzimidazol-2-yl]-2,6-dimethyl-3,16,22-triazatetracyclo[14.5.2.0^{5,10}.0^{19,23}] tricosa-1(22),5(10),6,8,17,19(23),20-heptaen-4-one] | 137
COc1cc(C(=O)N[C@H]2CNCC[C@@H]2F)cc2nc(-c3cc4ccc5nc4n3CCCCCc3cccc(C)c3C(=O)N[C@@H]5C)n(C)c12 [Example 363, 2-[(2~{R})-2,6-dimethyl-4-oxo-3,16,22-triazatetracyclo[14.5.2.0^{5,10}.0^{19,23}]tricosa-1(22),5(10),6,8,17,19(23),20-heptaen-17-yl]-~{N}-[(3~{S},4~{S})-4-fluoro-3-piperidyl]-7-methoxy-1-methyl-benzimidazole-5-carboxamide] | 110
COc1cc(C(=O)N2CC[C@@H](OC)[C@@H](N)C2)cc2nc(-c3cc4ccc5nc4n3C[C@H]3C[C@H]3CCCC(C)(C)C(=O)N[C@@H]5C)n(C)c12 [Example 366, (3~{S),5~{R},12~{R})-18-[5-[(3~{S},4~{R})-3-amino-4-methoxy-piperidine-1-carbonyl]-7-methoxy-1-methyl-benzimidazol-2-yl]-9,9,12-trimethyl-1,11,20-triazatetracyclo[11.5.2.0^{3,5}.0^{16,19}] icosa-13(20),14,16(19),17-tetraen-10-one] | 120
COc1cc(C(=O)N[C@H]2CNCC[C@@H]2F)cc2nc(-c3cc4ccc5nc4n3C[C@H]3C[C@H]3CCCC(C)(C)C(=O)N[C@@H]5C)n(C)c12 [Example 367, ~{N}-[(3~{S},4~{S})-4-fluoro-3-piperidyl]-7-methoxy-1-methyl-2-[(3~{S},5~{R},12~{R})-9,9,12-trimethyl-10-oxo-1,11,20-triazatetracyclo[11.5.2.0^{3,5}.0^{16,19}]icosa-13(20),14,16(19),17-tetraen-18-yl]benzimidazole-5-carboxamide] | 82
COc1cc(C(=O)N[C@H]2CNCC[C@@H]2F)cc2nc(-c3cc4ccc5nc4n3CCCCC[C@H]3[C@H](C(=O)N[C@@H]5C)C3(F)F)n(C)c12 [Example 368, 2-[(2~{R},5~{R},7~{S})-6,6-difluoro-2-methyl-4-oxo-3,13,19-triazatetracyclo[11.5.2.0^{5,7}.0^{16,20}]icosa-1(19),14,16(20),17-tetraen-14-yl]- ~{N}-[(3~{S},4~{S})-4-fluoro-3-piperidyl]-7-methoxy-1-methyl-benzimidazole-5-carboxamide] | 34
COc1cc(C(=O)N[C@H]2CNCC[C@@H]2F)cc2nc(-c3cc4ccc5nc4n3CCCCC[C@@H]3[C@@H](C(=O)N[C@@H]5C)C3(F)F)n(C)c12 [Example 369, 2-[(2~{R},5~{S},7~{R})-6,6-difluoro-2-methyl-4-oxo-3,13,19-triazatetracyclo[11.5.2.0^{5,7}.0^{16,20}]icosa-1(19),14,16(20),17-tetraen-14-yl]- ~{N}-[(3~{S},4~{S})-4-fluoro-3-piperidyl]-7-methoxy-1-methyl-benzimidazole-5-carboxamide] | 37
COc1cc(C(=O)N2CC[C@@H](OC)[C@@H](N)C2)cc2nc(-c3cc4ccc5nc4n3C[C@H]3C[C@H]3CCC[C@](C)(C(F)(F)F)C(=O)N[C@@H]5C)n(C)c12 [Example 370, (3~{S),5~{R},9~{S},12~{R})-18-[5-[(3~{S},4~{R})-3-amino-4-methoxy-piperidine-1-carbonyl]-7-methoxy-1-methyl-benzimidazol-2-yl]-9,12-dimethyl-9-(trifluoromethyl)-1,11,20-triazatetracyclo[11.5.2.0^{3,5}.0^{16,19}] icosa-13(20),14,16(19),17-tetraen-10-one] | 163
COc1cc(C(=O)N[C@H]2CNCC[C@@H]2F)cc2nc(-c3cc4ccc5nc4n3C[C@H]3C[C@H]3CCC[C@](C)(C(F)(F)F)C(=O)N[C@@H]5C)n(C)c12 [Example 371, 2-[(3~{S},5~{R},9~{S},12~{R})-9,12-dimethyl-10-oxo-9-(trifluoromethyl)-1,11,20-triazatetracyclo[11.5.2.0^{3,5}.0^{16,19}]icosa-13(20),14,16(19),17-tetraen-18-yl]-~{N}-[(3~{S},4~{S})-4-fluoro-3-piperidyl]-7-methoxy-1-methyl-benzimidazole-5-carboxamide] | 222
COc1cc(C(=O)N2CC[C@@H](OC)[C@@H](N)C2)cc2nc(-c3cc4ccc5nc4n3C[C@H]3C[C@H]3CCC[C@@](C)(C(F)(F)F)C(=O)N[C@@H]5C)n(C)c12 [Example 372, (3~{S},5~{R},9~{R},12~{R})-18-[5-[(3~{S},4~{R})-3-amino-4-methoxy-piperidine-1-carbonyl]-7-methoxy-1-methyl-benzimidazol-2-yl]-9,12-dimethyl-9-(trifluoromethyl)-1,11,20-triazatetracyclo[11.5.2.0^{3,5}.0^{16,19}] icosa-13(20),14,16(19),17-tetraen-10-one] | 183
COc1cc(C(=O)NC2CNCC[C@@H]2F)cc2nc(-c3cc4ccc5nc4n3C[C@H]3C[C@H]3CCC[C@@](C)(C(F)(F)F)C(=O)N[C@@H]5C)n(C)c12 (stereo partly drawn) [Example 373, 2-[(3~{S},5~{R},9~{R},12~{R})-9,12-dimethyl-10-oxo-9-(trifluoromethyl)-1,11,20-triazatetracyclo[11.5.2.0^{3,5}.0^{16,19}]icosa-13(20),14,16(19),17-tetraen-18-yl]-~{N}-[(3~{S},4~{S})-4-fluoro-3-piperidyl]-7-methoxy-1-methyl-benzimidazole-5-carboxamide] | 254
COc1cc(C(=O)N2CC[C@@H](OC)[C@@H](N)C2)cc2nc(-c3cc4ccc5nc4n3CCCCCCC(F)(F)C(=O)N[C@@H]5C)n(C)c12 [Example 374, (11~{R})-17-[5-[(3~{S},4~{R})-3-amino-4-methoxy-piperidine-1-carbonyl]-7-methoxy-1-methyl-benzimidazol-2-yl]-8,8-difluoro-11-methyl-1,10,19-triazatricyclo[10.5.2.0^{15,18}]nonadeca-12(19),13,15(18),16-tetraen-9-one] | 121
COc1cc(C(=O)N[C@H]2CNCC[C@@H]2F)cc2nc(-c3cc4ccc5nc4n3CCCCCCC(F)(F)C(=O)N[C@@H]5C)n(C)c12 [Example 375, 2-[(11~{R})-8,8-difluoro-11-methyl-9-oxo-1,10,19-triazatricyclo[10.5.2.0^{15,18}]nonadeca-12(19),13,15(18),16-tetraen-17-yl]-~ {N}-[(3~{S},4~{S})-4-fluoro-3-piperidyl]-7-methoxy-1-methyl-benzimidazole-5-carboxamide] | 109
C[C@H]1NC(=O)C(C)(C)CCCCCCn2c(-c3nc4cc(C(=O)N[C@H]5CNCC[C@@H]5F)ccc4n3C3CC3)cc3ccc1nc32 [Example 376, 1-cyclopropyl-~{N}-[(3~{S},4~{S})-4-fluoro-3-piperidyl]-2-[(11~{R})-8,8,11-trimethyl-9-oxo-1,10,19-triazatricyclo[10.5.2.0^{15,18}]nonadeca-12(19),13,15(18),16-tetraen-17-yl]benzimidazole-5-carboxamide] | 82
